# Measured values: the supplement of paper PMC10307832
# Columns and labels:
# Assay in all cases: relative viability (nuclei count vs DMSO), 5 days (fraction); higher = more cells survive
# Axitinib + Linsitinib = compound: CNC(=O)c1ccccc1Sc1ccc2c(/C=C/c3ccccn3)n[nH]c2c1 [Axitinib] + C[C@]1(O)C[C@@H](c2nc(-c3ccc4ccc(-c5ccccc5)nc4c3)c3c(N)nccn32)C1 [Linsitinib] (partner 1 µM)
# Outline: (§1)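 Lung cancer cell lines in 1536-well plates got either a single drug or a fixed anchor-drug dose together with five library-drug doses (not always all listed) in √10 steps, by pin tool, on the day after seeding. Nuclei were counted after 5 days, and relative viability is the treated-to-vehicle ratio of nuclei counts. Values are medians of duplicate plates.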
# Bemcentinib + OSI-027 = compound: Nc1nc(Nc2ccc3c(c2)CC[C@@H](N2CCCC2)CC3)nn1-c1cc2c(nn1)-c1ccccc1CCC2 [Bemcentinib] + COc1cccc2cc(-c3nc([C@H]4CC[C@H](C(=O)O)CC4)n4ncnc(N)c34)[nH]c12 [OSI-027] (partner 0.5 µM)
# Outline: as §1
# Bemcentinib + Pemetrexed = compound: Nc1nc(Nc2ccc3c(c2)CC[C@@H](N2CCCC2)CC3)nn1-c1cc2c(nn1)-c1ccccc1CCC2 [Bemcentinib] + Nc1nc2[nH]cc(CCc3ccc(C(=O)N[C@@H](CCC(=O)O)C(=O)O)cc3)c2c(=O)[nH]1 [Pemetrexed] (partner 0.2 µM)
# Outline: as §1
# Bemcentinib + AZD7762 = compound: Nc1nc(Nc2ccc3c(c2)CC[C@@H](N2CCCC2)CC3)nn1-c1cc2c(nn1)-c1ccccc1CCC2 [Bemcentinib] + NC(=O)Nc1cc(-c2cccc(F)c2)sc1C(=O)N[C@H]1CCCNC1 [AZD7762] (partner 0.2 µM)
# Outline: as §1
Cell Line,relative viability (Axitinib + Linsitinib; first compound 0.005 µM),relative viability (Axitinib + Linsitinib; first compound 0.01581 µM),relative viability (Axitinib + Linsitinib; first compound 0.05 µM),relative viability (Axitinib + Linsitinib; first compound 0.1581 µM),relative viability (Axitinib + Linsitinib; first compound 0.5 µM),relative viability (Bemcentinib + OSI-027; first compound 0.04 µM),relative viability (Bemcentinib + OSI-027; first compound 0.1265 µM),relative viability (Bemcentinib + OSI-027; first compound 0.4 µM),relative viability (Bemcentinib + OSI-027; first compound 1.265 µM),relative viability (Bemcentinib + OSI-027; first compound 4 µM),relative viability (Bemcentinib + Pemetrexed; first compound 0.04 µM),relative viability (Bemcentinib + Pemetrexed; first compound 0.1265 µM),relative viability (Bemcentinib + Pemetrexed; first compound 0.4 µM),relative viability (Bemcentinib + Pemetrexed; first compound 1.265 µM),relative viability (Bemcentinib + Pemetrexed; first compound 4 µM),relative viability (Bemcentinib + AZD7762; first compound 0.04 µM),relative viability (Bemcentinib + AZD7762; first compound 0.1265 µM),relative viability (Bemcentinib + AZD7762; first compound 0.4 µM),relative viability (Bemcentinib + AZD7762; first compound 1.265 µM),relative viability (Bemcentinib + AZD7762; first compound 4 µM)
SW 1573,0.911,0.855,0.899,0.8,0.84,0.609,0.731,0.677,0.589,0.661,0.944,0.865,0.89,0.839,0.725,–,–,–,–,–
COR-L 105,1.04,0.792,0.97,1.21,1.13,0.521,0.642,0.571,0.713,0.726,0.989,1.12,1.18,0.93,1.03,–,–,–,–,–
COR-L23,0.899,0.944,1.01,0.968,1.11,0.665,0.969,0.905,0.788,0.888,0.195,0.204,0.204,0.19,0.202,–,–,–,–,–
NCI-H322M,0.932,0.897,0.892,0.889,0.827,0.585,0.596,0.597,0.621,0.597,0.625,0.633,0.659,0.704,0.618,0.545,0.564,0.593,0.681,0.617
NCI-H2347,1.07,0.929,1.08,1.07,0.914,0.413,0.454,0.386,0.429,0.422,0.558,0.457,0.428,0.434,0.437,0.684,0.792,0.728,0.67,0.652
RERF-LC-KJ,0.962,0.81,0.901,0.834,0.947,0.594,0.552,0.571,0.58,0.567,0.467,0.46,0.464,0.463,0.449,0.996,0.957,0.967,0.982,0.888
NCI-H2228,0.674,0.625,0.633,0.735,0.58,0.186,0.599,0.745,0.575,0.775,0.325,0.346,0.351,0.34,0.321,–,–,–,–,–
A549,0.606,0.606,0.595,0.529,0.573,–,–,–,–,–,–,–,–,–,–,–,–,–,–,–
NCI-H358,0.729,0.803,0.852,0.727,0.848,0.799,0.952,0.837,0.99,0.939,0.176,0.177,0.166,0.187,0.179,0.527,0.516,0.562,0.411,0.602
NCI-H2342,–,–,–,–,–,0.618,0.655,0.689,0.56,0.567,0.703,0.805,0.823,0.728,0.787,0.415,0.516,0.472,0.52,0.493
